Patent US8247211B2, “Glycopeptide antibiotics” (American Cyanamid Company, priority 2001, dated 2012)
Values after ≈ are worked out from the molar mass of the structure shown.

Key:
Assay in all cases: In vitro antibacterial evaluation: minimum inhibitory concentration (MIC), broth dilution method
Assay type in all cases: cell-based
Conditions in all cases: 18 hours at 35° C.
Enterococcus sp. = tested on: Enterococcus sp.
Procedure: (§1) The minimum inhibitory concentration (MIC), the lowest concentration of the antibiotic which inhibits growth of the test organism, is determined by the broth dilution method using Muller-Hinton II […] (Baltimore Biological Laboratories) following the recommendations of the National Committee for Clinical Laboratory Standards [Methods for dilution antimicrobial susceptibility tests for bacteria that grow aerobically, approved standard M7-A2, National Committee for Clinical Laboratory Standards, Villanova, Pa].
(§2) An inoculum level of 5×10^5 CFU/mL, and a range of antibiotic concentrations (64-0.06 μg/mL) is used. […] The test organisms include a spectrum of Gram-positive bacteria comprised of Staphylococcus sp., Streptococcus sp. and Enterococcus sp. These organisms include recent clinical isolates that are resistant to methicillin, penicillin and/or vancomycin.

Staphylococcus sp. = tested on: Staphylococcus sp.
Procedure: as §1, §2

Escherichia coli = tested on: Escherichia coli
Procedure: as §1, §2

Streptococcus sp. = tested on: Streptococcus sp.
Procedure: as §1, §2

[1] = broth dilution, inoculum 5×10^5 CFU/mL

CC(c1ccccc1)C1NC(=O)CNC(=O)C(CO)NC(=O)C(C(O)C2CNC(=N)N2C2OC(CO)C(O)C(O)C2O)NC(=O)C(C(O)C2CNC(=N)N2)NC(=O)C(Cc2ccc(OC3OC(CO)C(OC4OC(COCc5ccc(Oc6ccccc6)cc5)C(O)C(O)C4O)C(O)C3O)cc2)NC1=O (stereo not drawn) [Example 236, Cyclo[glycyl-β-methylphenylalanyl-O-[4-O-[6-O-(4-phenoxybenzyl)hexopyranosyl]hexopyranosyl]tyrosyl-3-(2-iminoimidazolidin-4-yl)seryl-3-(3-hexopyranosyl-2-iminoimidazolidin-4-yl)serylseryl]]
MIC Enterococcus avium (GC 4558) (Enterococcus sp.; Enterococcus avium (GC 4558)): 2 µg/mL (≈ 1.35 µM) | MIC Enterococcus faecalis (ATCC 29212) (Enterococcus sp.; Enterococcus faecalis (ATCC 29212)): 4 µg/mL (≈ 2.71 µM) | MIC Enterococcus faecalis (GC 2242) (Enterococcus sp.; Enterococcus faecalis (GC 2242)): 4 µg/mL (≈ 2.71 µM) | MIC Enterococcus faecalis (GC 2691) (Enterococcus sp.; Enterococcus faecalis (GC 2691)): 2 µg/mL (≈ 1.35 µM) | MIC Enterococcus faecalis (GC 3059) (Enterococcus sp.; Enterococcus faecalis (GC 3059)): 2 µg/mL (≈ 1.35 µM) | MIC Enterococcus faecalis (GC 4552) (Enterococcus sp.; Enterococcus faecalis (GC 4552)): 4 µg/mL (≈ 2.71 µM) | MIC Enterococcus faecalis (GC 4553) (Enterococcus sp.; Enterococcus faecalis (GC 4553)): 4 µg/mL (≈ 2.71 µM) | MIC Enterococcus faecalis (GC 4554) (Enterococcus sp.; Enterococcus faecalis (GC 4554)): 4 µg/mL (≈ 2.71 µM) | MIC Enterococcus faecalis (GC 6189) (Enterococcus sp.; Enterococcus faecalis (GC 6189)): 2 µg/mL (≈ 1.35 µM) | MIC Enterococcus faecium (GC 2243) (Enterococcus sp.; Enterococcus faecium (GC 2243)): 4 µg/mL (≈ 2.71 µM) | MIC Enterococcus faecium (GC 4556) (Enterococcus sp.; Enterococcus faecium (GC 4556)): 4 µg/mL (≈ 2.71 µM) | MIC Enterococcus faecium (GC 4557) (Enterococcus sp.; Enterococcus faecium (GC 4557)): 2 µg/mL (≈ 1.35 µM) | MIC Enterococcus faecalis (GC 2242) (Enterococcus sp.; [1]): 4 µg/mL (≈ 2.71 µM) | MIC Enterococcus faecalis (GC 2691) (Enterococcus sp.; [1]): 2 µg/mL (≈ 1.35 µM) | MIC Enterococcus faecalis (GC 3059) (Enterococcus sp.; [1]): 2 µg/mL (≈ 1.35 µM) | MIC Coagulase Negative Staphylococcus (GC 4547) (Staphylococcus sp.; Coagulase Negative Staphylococcus (GC 4547)): 2 µg/mL (≈ 1.35 µM) | MIC Coagulase Negative Staphylococcus (GC 4548) (Staphylococcus sp.; Coagulase Negative Staphylococcus (GC 4548)): 0.5 µg/mL (≈ 0.338 µM) | MIC Coagulase Negative Staphylococcus (GC 4549) (Staphylococcus sp.; Coagulase Negative Staphylococcus (GC 4549)): 0.5 µg/mL (≈ 0.338 µM) | MIC Coagulase Negative Staphylococcus (GC 4551) (Staphylococcus sp.; Coagulase Negative Staphylococcus (GC 4551)): 2 µg/mL (≈ 1.35 µM) | MIC Coagulase Negative Staphylococcus (GC 6257) (Staphylococcus sp.; Coagulase Negative Staphylococcus (GC 6257)): 1 µg/mL (≈ 0.677 µM) | MIC Staphylococcus aureus (ATCC 29213) (Staphylococcus sp.; Staphylococcus aureus (ATCC 29213)): 2 µg/mL (≈ 1.35 µM) | MIC Staphylococcus aureus (GC 1131) (Staphylococcus sp.; Staphylococcus aureus (GC 1131)): 2 µg/mL (≈ 1.35 µM) | MIC Staphylococcus aureus (GC 3051) (Staphylococcus sp.; Staphylococcus aureus (GC 3051)): 2 µg/mL (≈ 1.35 µM) | MIC Staphylococcus aureus (GC 3053) (Staphylococcus sp.; Staphylococcus aureus (GC 3053)): 2 µg/mL (≈ 1.35 µM) | MIC Staphylococcus aureus (GC 4541) (Staphylococcus sp.; Staphylococcus aureus (GC 4541)): 2 µg/mL (≈ 1.35 µM) | MIC Staphylococcus aureus (GC 4542) (Staphylococcus sp.; Staphylococcus aureus (GC 4542)): 4 µg/mL (≈ 2.71 µM) | MIC Staphylococcus aureus (GC 4544) (Staphylococcus sp.; Staphylococcus aureus (GC 4544)): 2 µg/mL (≈ 1.35 µM) | MIC Staphylococcus aureus (GC 4545) (Staphylococcus sp.; Staphylococcus aureus (GC 4545)): 2 µg/mL (≈ 1.35 µM) | MIC Staphylococcus aureus-SMITH (GC 4543) (Staphylococcus sp.; Staphylococcus aureus-SMITH (GC 4543)): 2 µg/mL (≈ 1.35 µM) | MIC Staphylococcus haemolyticus (GC 4546) (Staphylococcus sp.; Staphylococcus haemolyticus (GC 4546)): 2 µg/mL (≈ 1.35 µM) | MIC Escherichia coli (ATCC 25922) (Escherichia coli; Escherichia coli (ATCC 25922)): >64 µg/mL | MIC Escherichia coli (GC 4559) (Escherichia coli; Escherichia coli (GC 4559)): >64 µg/mL | MIC Escherichia coli (GC 4560) (Escherichia coli; Escherichia coli (GC 4560)): 1 µg/mL (≈ 0.677 µM) | MIC Streptococcus agalactiae (GC 4564) (Streptococcus sp.; Streptococcus agalactiae (GC 4564)): 0.12 µg/mL (≈ 0.0812 µM) | MIC Streptococcus pneumoniae (ATCC 6301) (Streptococcus sp.; Streptococcus pneumoniae (ATCC 6301)): <0.06 µg/mL | MIC Streptococcus pneumoniae (GC 1894) (Streptococcus sp.; Streptococcus pneumoniae (GC 1894)): <0.06 µg/mL | MIC Streptococcus pneumoniae (GC 4565) (Streptococcus sp.; Streptococcus pneumoniae (GC 4565)): <0.06 µg/mL | MIC Streptococcus pyogenes (GC 4563) (Streptococcus sp.; Streptococcus pyogenes (GC 4563)): <0.06 µg/mL | MIC Streptococcus agalactiae (GC 4564) (Streptococcus sp.; [1]): 0.12 µg/mL (≈ 0.0812 µM) | MIC Streptococcus pneumoniae (ATCC 6301) (Streptococcus sp.; [1]): <0.06 µg/mL | MIC Streptococcus pneumoniae (GC 1894) (Streptococcus sp.; [1]): <0.06 µg/mL | MIC Streptococcus pneumoniae (GC 4565) (Streptococcus sp.; [1]): <0.06 µg/mL | MIC Streptococcus pyogenes (GC 4563) (Streptococcus sp.; [1]): <0.06 µg/mL
